According to publication PMC4360378 (Journal of Medicinal Chemistry, 2015):

Tests used:
yeast Rtt109–Vps75 = target: T1, yeast Rtt109–Vps75 (Saccharomyces cerevisiae, UniProt Q07794); experiment: [3H]-acetyl-CoA HAT assay, Rtt109; assay type: biochemical; details: 1 mM DTT; results similar versus Rtt109-Vps75, p300, and Gcn5
T1 sequence (Q07794 1-436): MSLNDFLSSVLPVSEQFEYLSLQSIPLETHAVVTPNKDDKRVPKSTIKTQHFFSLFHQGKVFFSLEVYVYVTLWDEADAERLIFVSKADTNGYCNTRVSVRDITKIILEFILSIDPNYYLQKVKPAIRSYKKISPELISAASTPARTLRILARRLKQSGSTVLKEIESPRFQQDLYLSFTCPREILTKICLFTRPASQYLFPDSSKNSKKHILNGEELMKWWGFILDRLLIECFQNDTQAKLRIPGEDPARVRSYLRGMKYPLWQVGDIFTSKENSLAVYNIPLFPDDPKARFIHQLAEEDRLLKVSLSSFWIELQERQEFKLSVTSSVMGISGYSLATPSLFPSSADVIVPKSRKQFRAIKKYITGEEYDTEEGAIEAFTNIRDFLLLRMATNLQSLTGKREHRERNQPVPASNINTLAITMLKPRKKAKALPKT
T1 sequence (P53853 1-264 partner): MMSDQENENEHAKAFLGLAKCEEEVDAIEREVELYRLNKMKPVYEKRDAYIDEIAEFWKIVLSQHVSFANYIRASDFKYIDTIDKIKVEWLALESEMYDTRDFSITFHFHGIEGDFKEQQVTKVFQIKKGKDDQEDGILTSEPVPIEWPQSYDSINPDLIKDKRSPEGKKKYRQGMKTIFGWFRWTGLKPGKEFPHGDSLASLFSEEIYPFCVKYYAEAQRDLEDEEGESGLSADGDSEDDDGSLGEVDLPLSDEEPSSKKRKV

[1] = Stability in HTS buffer by UPLC–MS; assay type: physicochemical; details: HTS buffer pH 8.0, UPLC–MS
human La antigen = target: T2, human La antigen (Homo sapiens, UniProt P05455); experiment: ALARM NMR; assay type: binding; details: for ALARM NMR reactivity: 200 μM test compounds, absence of DTT, prevented by 20 mM DTT; for La protein conformation in ALARM NMR: without the inclusion of DTT
T2 sequence (P05455 100-324): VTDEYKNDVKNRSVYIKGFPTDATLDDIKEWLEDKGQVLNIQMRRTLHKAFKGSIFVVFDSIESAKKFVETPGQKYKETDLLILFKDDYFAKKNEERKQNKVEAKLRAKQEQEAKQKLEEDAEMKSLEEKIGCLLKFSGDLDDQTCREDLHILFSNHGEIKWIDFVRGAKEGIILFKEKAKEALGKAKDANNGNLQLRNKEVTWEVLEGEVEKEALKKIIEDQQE

yeast Rtt109 = target: T3, yeast Rtt109 (Saccharomyces cerevisiae, UniProt Q07794); experiment: Protein mass spectrometry; assay type: binding; details: 100 μM compound, 10 μM protein, 30 °C, 60 min; LC–MS/MS
T3 sequence (Q07794 1-436): T1 sequence (Q07794 1-436)
T3 sequence (P53853 1-264 partner): T1 sequence (P53853 1-264 partner)

yeast Vps75 = target: T4, yeast Vps75 (Saccharomyces cerevisiae, UniProt P53853); experiment: Protein mass spectrometry; assay type: binding; details: 100 μM compound, 10 μM protein, 30 °C, 60 min; LC–MS/MS
T4 sequence (P53853 1-264): T1 sequence (P53853 1-264 partner)
T4 sequence (Q07794 1-436 partner): T1 sequence (Q07794 1-436)

SMILES | (+) DTT IC50 effect (yeast Rtt109–Vps75) | ALARM NMR reactivity (human La antigen) | other results
CCN(CC)c1ccc2c(C)c(-c3ccc(N4C(=O)C=CC4=O)cc3)c(=O)oc2c1 [CPM, N-[4-(7-diethylamino-4-methylcoumarin-3-yl)phenyl]maleimide, reference compound] | increase | – | –
O=C(O)CSc1cc(NS(=O)(=O)c2ccc(Br)cc2)c2ccccc2c1O [6y] | increase | – | –
OC(Cn1cncn1)(Cn1cncn1)c1ccc(F)cc1F [fluconazole, reference compound] | none | – | –
O=C1CC(Sc2nnc(-c3ccccc3O)o2)C(=O)N1c1ccc(Br)cc1 (stereo not shown) [4a] | increase | covalently modify cysteines | stability in HTS buffer [1]: thiol leaving groups (e.g., 4a″) were detected
O=[N+]([O-])c1cc(Br)c2nsnc2c1Sc1ncnc2[nH]cnc12 [2a] | increase | covalently modify cysteines | stability in HTS buffer [1]: stable
O=C(O)c1ccc(-n2nnnc2SC2=CS(=O)(=O)c3ccccc32)cc1 [1a] | increase | covalently modify cysteines | Peptide adduct detected, Rtt109 (yeast Rtt109): forms a detectable adduct with C94
CNc1nc(-c2ccccc2)[n+](-c2ccccc2)s1.[Cl-] [3a] | – | covalently modify cysteines | –
O=S(=O)(Nc1cc(Sc2ncn[nH]2)c(O)c2ccccc12)c1ccc2ccccc2c1 [6b] | – | covalently modify cysteines | La protein conformation in ALARM NMR (human La antigen): strongly perturbed
O=[N+]([O-])c1c(Sc2nnnn2-c2ccccc2)cc(Cl)c2nonc12 [2e] | increase | – | –
O=C(O)CCSc1cc(NS(=O)(=O)c2ccc(Br)cc2)c2ccccc2c1O [6a] | increase | covalently modify cysteines | La protein conformation in ALARM NMR (human La antigen): strongly perturbed; Peptide adduct detected, Vps75 (yeast Vps75): forms a detectable adduct with mono-oxidized C21
O=C(O)CSc1cc(NS(=O)(=O)c2ccc(C(=O)O)cc2)c2ccccc2c1O [6c] | increase | – | –
O=S(=O)(Nc1cc(Cl)c(O)c2ccccc12)c1ccc(Br)cc1 [6e] | increase | – | –
